Holding throughout (assay): Anti-bacterial activity (MIC), agar dilution
What all share (assay type): cell-based
For orientation: In agar dilution, organisms are placed on agar that contains the substance at set levels.

For one experiment, the system named is Ser. marcescens ES-75. The conditions noted are these: Serratia marcescens, ES75, 18 h, Ser. marcescens ES-75; agar dilution, about 10^6 CFU/ml, 18 hours, 37° C.; read-out: MIC. The gist of the method:
(§1)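 MIC values (μg/ml) come from agar dilution: strains grown overnight in Mueller-Hinton broth, diluted to roughly 10^6 CFU/ml, spotted on Mueller-Hinton agar containing twofold serial antibiotic dilutions, and read after 18 hours at 37° C.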

The test system of a further experiment is Pseud. aeruginosa EP-01. The note with it: Pseudomonas aeruginosa, EP01, 18 h, Pseud. aeruginosa EP-01; agar dilution, about 10^6 CFU/ml, 18 hours, 37° C.; read-out: MIC. The gist of the method:
as §1

The test system of another experiment is Staph. aureus 209-P. The note with it: Staphylococcus aureus, 209P, 18 h, Staph. aureus 209-P; agar dilution, about 10^6 CFU/ml, 18 hours, 37° C.; read-out: MIC. The gist of the method:
as §1

The test system of another experiment is Kleb. pneumoniae EK-6. The conditions noted are these: Klebsiella pneumoniae, EK6, 18 h, Kleb. pneumoniae EK-6; agar dilution, about 10^6 CFU/ml, 18 hours, 37° C.; read-out: MIC. The gist of the method: as §1
The next experiment deals with Escher. coli NIHJ. The note with it: Escherichia coli, 18 h, Escher. coli NIHJ; agar dilution, about 10^6 CFU/ml, 18 hours, 37° C.; read-out: MIC. The gist of the method: as §1
The subject of experiment [1] is Morganella morganii EP-14. The note with it: Morganella morganii, EP14, 18 h, about 10^6 CFU/ml, 37° C., read-out: MIC. A digest of the protocol: as §1

This note sets out measurements from patent publication US4921850A, “3-propenylcephem derivative” (Eisai Co., Ltd., priority 1986, dated 1990).

In brackets after ≈: the same amount, converted by molar mass. Bounds are passed on as bounds.

With `CNC(=O)CC[N+](C)(C)C/C=C/C1=C(C(=O)[O-])N2C(=O)[C@@H](NC(=O)/C(=N\OCF)c3nsc(N)n3)[C@H]2SC1` [Example 97], the minimum inhibitory concentration (MIC) in the experiment on Ser. marcescens ES-75 was at most 0.025 µg/mL; with Pseud. aeruginosa EP-01, 0.8 µg/mL (≈ 1.4 µM); in the experiment on Staph. aureus 209-P it was 0.2 µg/mL (≈ 0.35 µM); in the experiment on Kleb. pneumoniae EK-6, at most 0.025 µg/mL; in the experiment with Escher. coli NIHJ it was at most 0.025 µg/mL; in experiment [1], at most 0.025 µg/mL.
Regarding `CN(C)C(=O)CC[N+](C)(C)C/C=C/C1=C(C(=O)[O-])N2C(=O)[C@@H](NC(=O)/C(=N\OCF)c3nsc(N)n3)[C@H]2SC1` [Example 98], the MIC in the experiment on Ser. marcescens ES-75 was 0.05 µg/mL (≈ 0.0855 µM); with Pseud. aeruginosa EP-01, 3.13 µg/mL (≈ 5.35 µM); in the experiment on Staph. aureus 209-P, 0.4 µg/mL (≈ 0.684 µM); in the experiment with Kleb. pneumoniae EK-6 it was 0.05 µg/mL (≈ 0.0855 µM); in the experiment on Escher. coli NIHJ it was 0.05 µg/mL (≈ 0.0855 µM); in experiment [1], at most 0.025 µg/mL.
For `COCC[N+](C)(C)C/C=C/C1=C(C(=O)[O-])N2C(=O)[C@@H](NC(=O)/C(=N\OCF)c3nsc(N)n3)[C@H]2SC1` [Example 99], the minimal inhibitory concentration (MIC) is at most 0.025 µg/mL in the experiment with Ser. marcescens ES-75; 1.56 µg/mL (≈ 2.87 µM) with Pseud. aeruginosa EP-01; 0.2 µg/mL (≈ 0.368 µM) in the experiment on Staph. aureus 209-P; at most 0.025 µg/mL in the experiment with Kleb. pneumoniae EK-6; at most 0.025 µg/mL in the experiment with Escher. coli NIHJ; at most 0.025 µg/mL in experiment [1].
Consider `NC(=O)N1CCC[N+](C/C=C/C2=C(C(=O)[O-])N3C(=O)[C@@H](NC(=O)/C(=N\OCF)c4nsc(N)n4)[C@H]3SC2)(CCO)CC1` (stereo partly drawn) [Example 101], for which the MIC in the experiment on Ser. marcescens ES-75 is at most 0.025 µg/mL; with Pseud. aeruginosa EP-01, 1.56 µg/mL (≈ 2.49 µM); in the experiment with Staph. aureus 209-P it was 0.2 µg/mL (≈ 0.319 µM); in the experiment with Kleb. pneumoniae EK-6, at most 0.025 µg/mL; with Escher. coli NIHJ, 0.05 µg/mL (≈ 0.0797 µM); in experiment [1], at most 0.025 µg/mL.
In the case of `C[N+](C)(C/C=C/C1=C(C(=O)[O-])N2C(=O)[C@@H](NC(=O)/C(=N\OCF)c3nsc(N)n3)[C@H]2SC1)Cc1ccn[nH]1` [Example 102], the minimal inhibitory concentration (MIC) is 0.05 µg/mL (≈ 0.0884 µM) in the experiment with Ser. marcescens ES-75; 1.56 µg/mL (≈ 2.76 µM) in the experiment with Pseud. aeruginosa EP-01; 0.2 µg/mL (≈ 0.354 µM) in the experiment with Staph. aureus 209-P; at most 0.025 µg/mL in the experiment on Kleb. pneumoniae EK-6; at most 0.025 µg/mL in the experiment with Escher. coli NIHJ; at most 0.025 µg/mL in experiment [1].
In the case of `Nc1ccc[n+](C/C=C/C2=C(C(=O)[O-])N3C(=O)[C@@H](NC(=O)/C(=N\OCF)c4nsc(N)n4)[C@H]3SC2)c1` [Example 103], the MIC was at most 0.025 µg/mL in the experiment on Ser. marcescens ES-75; 3.13 µg/mL (≈ 5.86 µM) in the experiment with Pseud. aeruginosa EP-01; 0.1 µg/mL (≈ 0.187 µM) in the experiment on Staph. aureus 209-P; at most 0.025 µg/mL in the experiment on Kleb. pneumoniae EK-6; at most 0.025 µg/mL in the experiment on Escher. coli NIHJ; at most 0.025 µg/mL in experiment [1].
As for `C[N+](C)(C/C=C/C1=C(C(=O)[O-])N2C(=O)[C@@H](NC(=O)/C(=N\OCF)c3nsc(N)n3)[C@H]2SC1)Cc1cnc[nH]1` [Example 106], the minimum inhibitory concentration (MIC) was 0.1 µg/mL (≈ 0.177 µM) in the experiment on Ser. marcescens ES-75; 3.13 µg/mL (≈ 5.53 µM) in the experiment with Pseud. aeruginosa EP-01; 0.4 µg/mL (≈ 0.707 µM) in the experiment on Staph. aureus 209-P; 0.05 µg/mL (≈ 0.0884 µM) in the experiment with Kleb. pneumoniae EK-6; at most 0.025 µg/mL with Escher. coli NIHJ; 0.05 µg/mL (≈ 0.0884 µM) in experiment [1].
For the compound `Nc1nc(/C(=N/OCF)C(=O)N[C@@H]2C(=O)N3C(C(=O)[O-])=C(/C=C/C[N+](N)(CCO)CCO)CS[C@H]23)ns1` [Example 107], the MIC was 0.05 µg/mL (≈ 0.0892 µM) in the experiment with Ser. marcescens ES-75; 1.56 µg/mL (≈ 2.78 µM) in the experiment with Pseud. aeruginosa EP-01; 0.2 µg/mL (≈ 0.357 µM) with Staph. aureus 209-P; at most 0.025 µg/mL in the experiment on Kleb. pneumoniae EK-6; 0.05 µg/mL (≈ 0.0892 µM) in the experiment with Escher. coli NIHJ; at most 0.025 µg/mL in experiment [1].
Turning to `Nc1nc(/C(=N/OCF)C(=O)N[C@@H]2C(=O)N3C(C(=O)[O-])=C(/C=C/C[n+]4ccc(C(=O)N5CCOCC5)cc4)CS[C@H]23)ns1` [Example 108], the MIC is 0.1 µg/mL (≈ 0.158 µM) in the experiment on Ser. marcescens ES-75; 3.13 µg/mL (≈ 4.95 µM) in the experiment with Pseud. aeruginosa EP-01; 0.4 µg/mL (≈ 0.632 µM) in the experiment with Staph. aureus 209-P; at most 0.025 µg/mL in the experiment with Kleb. pneumoniae EK-6; 0.05 µg/mL (≈ 0.079 µM) in the experiment with Escher. coli NIHJ; 0.05 µg/mL (≈ 0.079 µM) in experiment [1].
On to `C[N+](C)(C/C=C/C1=C(C(=O)[O-])N2C(=O)[C@@H](NC(=O)/C(=N\OC(F)F)c3nsc(N)n3)[C@H]2SC1)CC(N)=O` [Example 114, 7β-[2-(5-Amino-1,2,4-thiadiazol-3-yl)-(Z)-2-difluoromethoxyiminoacetamido]-3-[(E)-3-(dimethylcarbamoylmethylammonio)-1-propen-1-yl]-3-cephem-4-carboxylate], for which the MIC is 0.05 µg/mL (≈ 0.0892 µM) in the experiment on Ser. marcescens ES-75; 0.8 µg/mL (≈ 1.43 µM) in the experiment with Pseud. aeruginosa EP-01; 0.2 µg/mL (≈ 0.357 µM) in the experiment with Staph. aureus 209-P; at most 0.025 µg/mL in the experiment with Kleb. pneumoniae EK-6; 0.05 µg/mL (≈ 0.0892 µM) with Escher. coli NIHJ; at most 0.025 µg/mL in experiment [1].

As usually defined, the MIC is the lowest concentration found to suppress growth.
